Laboratory results published in patent US8377691B2 (priority 2006, dated 2013).
Entries after “also recorded” stand apart in the source; their conditions may differ.

Tested on: A/M2 VN1194
Assay type: biochemical

| Structure (SMILES) | H+ transport across VLP membranes (fluorescence) |
| --- | --- |
| CC(N)C12CC3CC(CC(C3)C1)C2 (centres unmarked) [rimantadine] | exerted no effect |
| NC12CC3CC(CC(C3)C1)C2 [amantadine] | exerted no effect; also recorded: did not, however, influence |
